Laboratory results: patent publication US8124834B2, “Use of active cytokinin synthase gene” (Riken, priority 2006, dated 2012)
Blank lines part the entries; values can stand above or below the molecule they belong to.

Assays:
LOG protein [1] = biological target: T1, LOG protein (Oryza sativa subsp. japonica, UniProt Q5ZC82); assay: Detection of enzyme activity of recombinant LOG protein with cytokinin substrates (HPLC); type: biochemical; design: the protein coding region of the LOG gene cDNA was inserted into pCOLD-I (TaKaRa), a His-tag protein expression vector; made in house; host or cells: E. coli BL21(DE3)[pG-Tf2]; settings: 3 μg LOG protein, 50 μM substrate, pH7, 30° C., 2 hours, HPLC absorption at 270 nm
T1 sequence (Q5ZC82 1-242): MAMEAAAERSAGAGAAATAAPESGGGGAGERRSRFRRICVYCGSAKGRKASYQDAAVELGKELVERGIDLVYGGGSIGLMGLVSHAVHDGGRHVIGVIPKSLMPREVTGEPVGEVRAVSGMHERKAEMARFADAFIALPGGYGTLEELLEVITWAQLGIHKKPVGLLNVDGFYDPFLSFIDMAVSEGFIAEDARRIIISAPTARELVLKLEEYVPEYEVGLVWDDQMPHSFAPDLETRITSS
Description: The following 8 types of cytokinin substrates were used: N^6-(delta-2-isopentenyl)adenine (iP), trans-zeatin (tZ), cis-zeatin (cZ), iP riboside (iPR), tZ riboside (tZR), cZ riboside (cZR), iPR 5′-monophosphate (iPRMP), and tZR 5′-monophosphate (tZRMP). As reaction conditions, 100 μl of a reaction solution containing 50 mM Tris-HCl, 1 mM MgCl2, and a 50 μM substrate, pH7 was incubated at 30° C. for 2 hours. Thereafter, 10 μl of 20% acetic acid was added to the reaction solution to terminate the reaction, and the reaction solution was then centrifuged at 15,000 rpm at a room temperature for 20 minutes. […] For elution, solvent C (100% acetonitrile) and solvent D (2% acetic acid) were used.

LOG protein [2] = biological target: T1, LOG protein; assay: Substrate specificity of LOG protein to nucleotide cytokinin forms and AMP; type: biochemical; design: the protein coding region of the LOG gene cDNA was inserted into pCOLD-I (TaKaRa), a His-tag protein expression vector; made in house; host or cells: E. coli BL21(DE3)[pG-Tf2]; settings: 0.02 μg LOG protein, 100 μM substrate, pH 6.5, 4 minutes (iPRDP, iPRTP: 0.01 μg, 2 minutes)
Description: The reaction specificity of the LOG protein to a nucleotide cytokinin form was analyzed. […] The following 7 types of substrates were used: iPRMP, tZRMP, dihydrozeatin riboside 5′-monophosphate (DZRMP), cZR 5′-monophosphate (cZRMP), iPR 5′-diphosphate (iPRDP), iPR 5′-triphosphate (iPRTP), and AMP. The reaction conditions are as follows. 0.02 μg of the LOG protein was used for a single reaction, and it was reacted with a 100 μM substrate in 200 μl of a reaction solution containing 50 mM Tris-HCl, 1 mM MgCl2, 1 mM DTT, pH 6.5. Thereafter, 0 minute and 4 minutes after initiation of the reaction, 600 μl of cold acetone was added to the reaction solution to terminate the reaction. The reaction solution was left at rest at −80° C. for 30 minutes, and it was then centrifuged at 15,000 rpm for 20 minutes. Thereafter, a supernatant was dried using a centrifugal thickener. […] Only the injection amount was changed to 50 μl. In the case of iPRDP and iPRTP, the amount of a reaction solution was determined to be 100 μl, the mass of a protein used was determined to be 0.01 μg, and the reaction time was determined to be 2 minutes.

LOG protein [3] = biological target: T1, LOG protein; assay: Measurement of Km value of LOG protein to iPRMP and tZRMP; type: biochemical; design: the protein coding region of the LOG gene cDNA was inserted into pCOLD-I (TaKaRa), a His-tag protein expression vector; made in house; host or cells: E. coli BL21(DE3)[pG-Tf2]; settings: 0.02 μg LOG protein
Description: (§1) In order to obtain the Km value of the LOG protein to typical substrates iPRMP and tZRMP, the following experiment was carried out. 0.02 μg of LOG protein was used for a single reaction, and it was reacted with a substrate in a substrate concentration of each of 5, 8, 15, 30 and 100 μM in 200 μl of a reaction solution containing 50 mM Tris-HCl, 1 mM MgCl2, 1 mM DTT, pH 6.5. Thereafter, 0 minute, 2 minutes and 4 minutes after initiation of the reaction, 600 μl of cold acetone was added to the reaction solution to terminate the reaction. The reaction solution was left at rest at −80° C. for 30 minutes, and it was then centrifuged at 15,000 rpm for 20 minutes. Thereafter, a supernatant was dried using a centrifugal thickener. The resultant was dissolved in 100 μl of 2% acetic acid, and a reaction product was then detected and quantified under the same conditions as those for the liquid chromatography of Example 2. Only the injection amount was changed to 50 μl. The aforementioned experiment was carried out three times, and the Km value was calculated.

[4] = Enzyme properties of AtLOG 1, 2, 3, 4, 5, 7 and 8 proteins having iPRMP as substrate; type: biochemical, Arabidopsis thaliana
Description: as §1
The enzyme activity of each of the purified AtLOG proteins was evaluated under the same reaction conditions as those of Example 2. […] In addition, the enzyme property of each AtLOG protein to iPRMP was determined in the same manner as in Example 5 (Table 4). In Table 4, the Km, Vmax and Kcat values were calculated based on a reaction under the optimal pH condition of each AtLOG protein.

reactivity of LOG protein to the substrate (substrate specificity) (LOG protein [2]): uses as a substrate
Molecule: CC(CO)CCNc1ncnc2c1ncn2C1OC(COP(=O)(O)O)C(O)C1O (stereo not shown) [DZRMP, dihydrozeatin riboside 5′-monophosphate]

reactivity of the substrate with recombinant LOG protein (conversion to base form) (LOG protein [1]): no reactivity
Molecule: C/C(=C/CNc1ncnc2nc[nH]c12)CO [cZ, cis-zeatin]

reactivity of the substrate with recombinant LOG protein (conversion to base form) (LOG protein [1]): no reactivity
Molecule: C/C(=C/CNc1ncnc2c1ncn2[C@@H]1O[C@H](CO)[C@@H](O)[C@H]1O)CO [cZR, cZ riboside]

reactivity of the substrate with recombinant LOG protein (conversion to base form) (LOG protein [1]): no reactivity
Molecule: CC(C)=CCNc1ncnc2nc[nH]c12 [iP, N^6-(delta-2-isopentenyl)adenine]

reactivity of the substrate with recombinant LOG protein (conversion to base form) (LOG protein [1]): no reactivity
Molecule: CC(C)=CCNc1ncnc2c1ncn2[C@@H]1O[C@H](CO)[C@@H](O)[C@H]1O [iPR, iP riboside]

reactivity of the substrate with recombinant LOG protein (conversion to base form) (LOG protein [1]): no reactivity
Molecule: C/C(=C\CNc1ncnc2nc[nH]c12)CO [tZ, trans-zeatin]

reactivity of the substrate with recombinant LOG protein (conversion to base form) (LOG protein [1]): no reactivity
Molecule: C/C(=C\CNc1ncnc2c1ncn2[C@@H]1O[C@H](CO)[C@@H](O)[C@H]1O)CO [tZR, tZ riboside]

reactivity of LOG protein to the substrate (substrate specificity) (LOG protein [2]): uses as a substrate
Molecule: cis-zeatin riboside 5′-monophosphate [cZRMP]

The next lines start with the molecule.

Molecule: C/C(=C\CNc1ncnc2c1ncn2[C@@H]1O[C@H](COP(=O)(O)O)[C@@H](O)[C@H]1O)CO (relative stereo) [tZRMP, trans-zeatin riboside 5′-monophosphate]
reactivity of the substrate with recombinant LOG protein (conversion to base form) (LOG protein [1]): completely converted
reactivity of LOG protein to the substrate (substrate specificity) (LOG protein [2]): uses as a substrate
Km (LOG protein [3]; substrate 5, 8, 15, 30 and 100 μM, pH 6.5, experiment carried out three times): 22 ± 3.6 µM
specific activity of the LOG protein (LOG protein [3]; substrate 5-100 μM, pH 6.5): 4.2 μmol/min^−1/mg^−1 protein

B1: AtLOG5: Arabidopsis thaliana LOG homolog protein, gene At4g35190, amino acid sequence SEQ ID NO: 12, purified from E. coli (protein, listed as Arabidopsis sp.)
chain: MEIVKSRFKRVCVFCGSSSGKRECYSDAATDLAQELVTRRLNLVYGGGSIGLMGLVSQAVHEAGGHVLGIIPRTLMDKEITGETYGEVIAVADMHERKAEMARHSDCFIALPGGYGTLEELLEVIAWAQLGIHDKPVGLLNVDGYYNYLLTFIDKAVDDGFIKPSQRHIFVSAPNAKELVQKLEAYKPVNDGVIAKSRWEVEKKVQQPQQQQQVVFCSNTSMQTEIAL
Optimal pH [4]: 5.4 pH

B2: AtLOG8: Arabidopsis thaliana LOG homolog protein, gene At5g11950, amino acid sequence SEQ ID NO: 16, purified from E. coli (protein, listed as Arabidopsis sp.)
chain: MEDNQRSRFRKICVFCGSHSGHREVFSDAAIELGNELVKRKIDLVYGGGSVGLMGLISRRVYEGGLHVLGIIPKALMPIEISGETVGDVRVVADMHERKAAMAQEAEAFIALPGGYGTMEELLEMITWSQLGIHKKTVGLLNVDGYYNNLLALFDTGVEEGFIKPGARNIVVSAPTAKELMEKMEEYTPSHMHVASHESWKVEELGDYPGQENKPQ
Optimal pH [4]: 7.0 pH

B3: AtLOG7: Arabidopsis thaliana LOG homolog protein, gene At5g06300, amino acid sequence SEQ ID NO: 14, purified from E. coli (protein, listed as Arabidopsis sp.)
chain: MEETKSRFKRICVFCGSSSGKKPSYQEAAIQLGNELVERRIDLVYGGGSVGLMGLVSQAVHHGGRHVLGVIPKTLMPREITGETIGEVKAVADMHQRKAEMARQADAFIALPGGYGTLEELLEVITWAQLGIHRKPVGLLNVDGYYNSLLTFIDKAVDEGFISPMARRIIVSAPNAKELVRQLEEYEPEFDEITSKLVWDEVDRISYVPGSEVATAT
Optimal pH [4]: 6.5 pH

B4: AtLOG2: Arabidopsis thaliana LOG homolog protein, gene At2g35990, amino acid sequence SEQ ID NO: 6, purified from E. coli (protein, listed as Arabidopsis sp.)
chain: MEETKSRFRRICVFCGSSSGNKTTYHDAALQLAHQLVERNIDLVYGGGSVGLMGLISQAVHDGGRHVLGIIPKSLAPREITGESIGEVITVSTMHQRKAEMGRQADAFIALPGGYGTFEELLEVITWSQLGIHTKPVGLLNVDGFYDSLLTFIDKAVDEGFVSSTARRIIVSAPNAPQLLQLLEEYVPKHDDFVSKMVWDNTTDAFTLEGDSF
Optimal pH [4]: 6.5 pH

B5: AtLOG4: Arabidopsis thaliana LOG homolog protein, gene At3g53450, amino acid sequence SEQ ID NO: 10, purified from E. coli (protein, listed as Arabidopsis sp.)
chain: MEVNNETMQKSKFGRICVFCGSSQGKKSSYQDAAVDLGNELVLRNIDLVYGGGSIGLMGLVSQAVHDGGRHVIGVIPKTLMPRELTGETVGEVRAVADMHQRKAEMARHSDAFIALPGGYGTLEELLEVITWAQLGIHDKPVGLLNVDGYYNSLLSFIDKAVEEGFISTNARQIIISAPTAKELVKKLEEYSPCHESVATKLCWEIERIDYSSED
Optimal pH [4]: 6.5 pH

B6: AtLOG1: Arabidopsis thaliana LOG homolog protein, gene At2g28305, amino acid sequence SEQ ID NO: 4, purified from E. coli (protein, listed as Arabidopsis sp.)
chain: MEIESKFKRICVFCGSSAGNKVSYKDAAIELGTELVSRNIDLVYGGGSIGLMGLISQAVFNGGRHVIGVIPKTLMPREITGETVGEVKAVADMHQRKAEMAKHSDAFIALPGGYGTLEELLEVITWAQLGIHDKPVGLLNVEGYYNSLLSFIDKAVEEGFISPTARHIIVSAPSAKELVKKLEDYVPRHEKVASKKSWEMEQIGLSPTCEISR
Optimal pH [4]: 6.5 pH

B7: AtLOG3: Arabidopsis thaliana LOG homolog protein, gene At2g37210, amino acid sequence SEQ ID NO: 8, purified from E. coli (protein, listed as Arabidopsis sp.)
chain: MEIKGESMQKSKFRRICVFCGSSQGKKSSYQDAAVDLGNELVSRNIDLVYGGGSIGLMGLVSQAVHDGGRHVIGIIPKTLMPRELTGETVGEVRAVADMHQRKAEMAKHSDAFIALPGGYGTLEELLEVITWAQLGIHDKPVGLLNVDGYYNSLLSFIDKAVEEGFISPTAREIIVSAPTAKELVKKLEEYAPCHERVATKLCWEMERIGYSSEE
Optimal pH [4]: 6.5 pH
